Assay results published in patent US10988786B2, “Mutant 4-hydroxyphenylacetate 3-hydroxylases and uses thereof” (SYMRISE AG, priority 2015, dated 2021).

Tests used:
[1] = molecular target: T1, 4HPA3H (Escherichia coli, UniProt Q57160); experiment: Whole-cell hydroxylation, cells expressing wild-type 4HPA3H; format: cell-based, E. coli; conditions: BL21(DE3) cells expressing wild-type 4HPA3H
T1 construct: expressed in transfected cells; host or cells: E. coli BL21(DE3)
Description: (§5) Substrates (200 μM) as shown in FIG. 1 were added to suspensions of bacterial cells expressing 4HPA3H or its single (A) and double variants (B). After incubation for 16 hours, catechols and residual substrates were extracted and analyzed by HPLC
(§6) Suspensions of the cells were tested for hydroxylation of a panel of eight phenolic compounds (FIG. 1) which belong to different classes of natural products: we included (I) phenolic acids and ketones such as p-coumaric acid (1), ferulic acid (3), rheosmin (15) and p-hydroxybenzoic acid (9), (II) polycyclic compounds such as the hydroxycoumarin umbelliferone (13), the stilbene resveratrol (5) and the flavonoid naringenin (7). […] 4HPA3H was also tested for conversion of 4-methoxycinnamic acid and 4-aminocinnamic acid.

[2] = molecular target: T2, wild-type 4HPA3H (Escherichia coli, UniProt Q57160); experiment: In vitro hydroxylation by the 4HPA3H/PrnF/FDH system, wild-type 4HPA3H; format: biochemical, E. coli; conditions: substrate 1 mM, purified wild-type 4HPA3H, optimized conditions
T2 construct: made in house; host or cells: E. coli BL21(DE3)
Description: (§1) Purified 4HPA3H (A) or variants (B) (Y301I depicted in white and Y301F/S462A depicted in black) were used for conversion of substrates (1 mM) under optimized conditions. The numbers correspond to substrates as explained in the legend for FIG. 1 above.
(§2) In order to develop an effective and low-cost enzyme system for in vitro hydroxylation, several parameters of the 4HPA3H reaction with respect to maximum reaction rate were optimized. By means of a spectrophotometric assay (Example 4 above), the inventors screened different buffer systems and optimized the concentration of the components p-coumaric acid (1 cf. FIG. 1), FAD, NADH and methanol, the incubation temperature and oxygen transfer (i.e. by variation of the shaking frequency) (optimum conditions are given in the Experimental Section). […] In contrast to the cofactors, the accompanying cofactor recycling redox enzymes PrnF and FDH were used in excess due to their high specific activity.
In accordance with the whole-cell transformation experiments (FIG. 3), product yields in the conversion by the wild-type 4HPA3H (FIG. 8A) ranged from high (1, 13, 15 cf. FIG. 1) or moderate (5 cf. FIG. 1) to low (9, 11 cf. FIG. 1), whereas ferulic acid 3 was not oxidized. […] However, in contrast to the experiments with life biocatalysts […] conversion of naringenin (7 cf. FIG. 1) by the wild-type 4HPA3H (25% yield) was observed (which might be explained by increased substrate availability). The hydroxycarbazole (11) was not accepted by the double variant Y301F/S462A, probably because of the high substrate concentration which seems to reflect strong […] inhibition—an effect which has previously been observed for other 4HPA3H enzymes. Noteworthy, HPLC analysis of the reaction products confirmed product specificity.

[3] = molecular target: T3, 4HPA3H-Y301F/S462A (SEQ ID NO:175) (Escherichia coli, UniProt Q57160, S462A/Y301F); experiment: Solid phase-based cascade (Talon column), hydroxylation of naringenin to eriodictyol; format: biochemical, E. coli
T3 construct: made in house; host or cells: E. coli BL21(DE3)
Description: Stock solutions of […] and eriodictyol (10 mM each) in methanol were produced (for the structure of the compounds, see FIG. 9). They were diluted using acetonitrile for obtaining the desired concentrations (70, 110, 140, 210 and 280 μM). 10 μl of each sample was injected in to a HPLC machine and calibration curves were produced for both substances (data not shown).
First the catalysis was performed using 9 mU oxidase 4HPA3H in a 10 ml reaction comprising 1 ml 1M Tris/HCl, pH 7.5; 25 μl of a 10 mM NADH solution, 20 μl of a 5 mM FAD solution and 1 ml formate solution using 9 mU 4HPA3H-Y301F/S462A (SEQ ID NO:175) and 0.57 mU PrnF-reductase (SEQ ID NO:176) and 640 mU FDH (SEQ ID NO:177). Subsequently the enzymes were mixes, 100 μl 1M Tris/HCl solution, pH 7.5, was added and ddH2O (deionized, reverse osmosis) was added ad 2 ml. The enzyme solution was at least 5 times passed through a 1 ml Talon column with a flow rate of 0.1 ml/min^−1 to let the proteins bind to the column in a homogenous way. The evaluation of the complete binding of the proteins to the column material was measured via Bradford assay. Then, the column was washed once with 50 mM Tris/HCl, pH 7.5 (=basis buffer), and connected to a peristaltic pump.
The constituents of each reaction mixture were transferred to a suitable sterile flask, which was then connected to a peristaltic pump. During reaction, the reaction mixture was slightly stirred with the help of a magnetic stirrer. Using a flow rate of 1 ml/min, the system was washed with the basis buffer for 2 min and a control sample was taken. Only then, the substrate was added, here 200 μM naringenin (from a 10 mM stock solution in methanol). The substrate was pumped over the Talon column having the enzymes bound thereto with a flow rate of 1 ml/min at maximum. During the time range from 0-1310 min, the sample extraction was performed in samples of 35 μl each. Said samples were mixed with an equal volume of acetonitrile and were immediately injected into a HPLC device (20 μl each). The evaluation was conducted with the help of a calibration curve done at the beginning of the experiment and thereby measuring and calculating the peak areas (see FIG. 10).
The same assay was performed using 35 mU hydroxylase/1 ml column volume and the concentration of the co-enzymes for regeneration of the cofactor was increased equivalently.

[4] = Whole-cell hydroxylation, variants compared with wild-type on well-accepted substrates; conditions: whole cells
Description: as §5, §6

[5] = In vitro catechol complex formation assay (4HPA3H/PrnF/FDH), p-coumaric acid; format: biochemical; conditions: purified enzyme, optimized conditions, PrnF and FDH
Description: (A) Standard curve for the determination of caffeic acid (2 cf. FIG. 1). Mixtures of caffeic acid and p-coumaric acid (1) were incubated with FeCl3 and analyzed at 595 nm as described in the Experimental Section. (B) Time course of the oxidation of p-coumaric acid (1 cf. FIG. 1) by wild-type 4HPA3H. The enzymatic reaction was performed under optimized conditions, and produced caffeic acid (2 cf. FIG. 1) was detected as Fe^3+ complex. Data are the means±standard deviations obtained from three measurements.
(§3) For assaying 4HPA3H in microplate scale, 4HPA3H was incubated with PrnF, the substrate p-coumaric acid (1 cf. FIG. 1) and the formate dehydrogenase (FDH) from Candida boidinii. Similar as reported in our previous publication, this enzyme was introduced for regeneration of the costly cofactor NADH: NAD^+ formed during the reaction is recycled with sodium formate, yielding a sequential three-enzyme cascade for hydride transfer (FIG. 2). The conversion of p-coumaric acid (1 cf. FIG. 1) was measured spectrophotometrically by a previously established catechol complexation method (M. Dippe, B. Weigel, R. Heinke, T. Vogt, L. A. Wessjohann, 2014), which could be applied for quantitative determination of the product caffeic acid (see FIG. 6). […] However, similar to the data obtained from whole-cell biotransformations (see Example 2), these variants were beneficial in the conversion of ferulic acid (3 cf. FIG. 1), which is also reflected by comparably high conversion rates (4HPA3H-Y301F/S462A: 1.06±0.31 nmol min^−1 mg^−1, 4HPA3H-Y301I: 4.49±0.20 nmol min^−1 mg^−1).
(§4) In order to develop an effective and low-cost enzyme system for in vitro hydroxylation, several parameters of the 4HPA3H reaction with respect to maximum reaction rate were optimized. […]

[6] = In vitro assay (4HPA3H/PrnF/FDH), conversion of ferulic acid; format: biochemical; conditions: purified enzyme, PrnF and FDH
Description: as §3, §4

[7] = In vitro hydroxylation, mutant enzymes on challenging substrates 3 and 7; format: biochemical; conditions: substrate 1 mM, purified enzymes
Description: as §1, §2
In accordance with the whole-cell transformation experiments (FIG. 3), product yields in the conversion by the wild-type 4HPA3H (FIG. 8A) ranged from high (1, 13, 15 cf. FIG. 1) or moderate (5 cf. FIG. 1) to low (9, 11 cf. FIG. 1), whereas ferulic acid 3 was not oxidized. […]

| Molecule | acceptance as substrate [1] | product yield [2] | other results |
| --- | --- | --- | --- |
| Nc1ccc(C=CC(=O)O)cc1 [4-aminocinnamic acid] | no substrates | – | – |
| COc1ccc(C=CC(=O)O)cc1 [4-methoxycinnamic acid] | no substrates | – | – |
| O=C(O)/C=C/c1ccc(O)cc1 [Compound 1, p-coumaric acid] | high efficiency | high | – |
| COc1cc(/C=C/C(=O)O)ccc1O [Compound 3, ferulic acid] | not accepted | not oxidized | – |
| Oc1ccc(C=Cc2cc(O)cc(O)c2)cc1 [Compound 5, resveratrol] | – | moderate | – |
| O=C1C[C@@H](c2ccc(O)c(O)c2)Oc2cc(O)cc(O)c21 [Compound 8, eriodictyol] | – | – | biocatalytic formation of eriodictyol ([3]; 9 mU enzyme/1 ml column, 200 μM naringenin, after 1290 min): 42.4 µM; eriodictyol yielded ([3]; 35 mU hydroxylase/1 ml column volume, after 240 min): 67.7 µM |
| O=C(O)c1ccc(O)cc1 [Compound 9, p-hydroxybenzoic acid] | – | low | – |
| O=c1ccc2ccc(O)cc2o1 [Compound 13, umbelliferone] | – | high | – |
| CC(=O)CCc1ccc(O)cc1 [Compound 15, rheosmin] | – | high | conversion / yield of catechol product ([1]; substrate 200 μM, 16 hours, HPLC): 100% |
| S462A: 4HPA3H single variant S462A (protein, listed as Escherichia coli, 4HPA3H HpaB S462A) MKPEDFRASTQRPFTGEEYLKSLQDGREIYIYGERVKDVTTHPAFRNAAASVAQLYDALHKPEMQDSLCWNTDTGSGGYTHKFFRVAKSADDLRQQRDAIAEWSRLSYGWMGRTPDYKAAFGCALGANPGFYGQFEQNARNWYTRIQETGLYFNHAIVNPPIDRHLPTDKVKDVYIKLEKETDAGIIVSGAKVVATNSALTHYNMIGFGSAQVMGENPDFALMFVAPMDADGVKLISRASYEMVAGATGSPYDYPLSSRFDENDAILVMDNVLIPWENVLIYRDFDRCRRWTMEGGFARMYPLQACVRLAVKLDFITALLKKSLECTGTLEFRGVQADLGEVVAWRNTFWALSDSMCSEATPWVNGAYLPDHAALQTYRVLAPMAYAKIKNIIERNVTSGLIYLPSSARDLNNPQIDQYLAKYVRGSNGMDHVQRIKILKLMWDAIGSEFGGRHELYEINYAGSQDEIRLQCLRQAQNSGNMDKMMAMVDRCLSEYDQDGWTVPHLHNNDDINMLDKLLK | – | – | activity towards substrates 1, 13, 15 compared with wild-type enzyme [4]: comparably active |
| M293P: 4HPA3H single variant M293P (protein, listed as Escherichia coli, 4HPA3H HpaB M293P) MKPEDFRASTQRPFTGEEYLKSLQDGREIYIYGERVKDVTTHPAFRNAAASVAQLYDALHKPEMQDSLCWNTDTGSGGYTHKFFRVAKSADDLRQQRDAIAEWSRLSYGWMGRTPDYKAAFGCALGANPGFYGQFEQNARNWYTRIQETGLYFNHAIVNPPIDRHLPTDKVKDVYIKLEKETDAGIIVSGAKVVATNSALTHYNMIGFGSAQVMGENPDFALMFVAPMDADGVKLISRASYEMVAGATGSPYDYPLSSRFDENDAILVMDNVLIPWENVLIYRDFDRCRRWTPEGGFARMYPLQACVRLAVKLDFITALLKKSLECTGTLEFRGVQADLGEVVAWRNTFWALSDSMCSEATPWVNGAYLPDHAALQTYRVLAPMAYAKIKNIIERNVTSGLIYLPSSARDLNNPQIDQYLAKYVRGSNGMDHVQRIKILKLMWDAIGSEFGGRHELYEINYSGSQDEIRLQCLRQAQNSGNMDKMMAMVDRCLSEYDQDGWTVPHLHNNDDINMLDKLLK | – | – | activity towards substrates 1, 13, 15 compared with wild-type enzyme [4]: reduced activity |
| 4HPA3H: wild-type 4-hydroxyphenylacetate 3-hydroxylase from E. coli, SEQ ID NO:98 (protein, listed as Escherichia coli, 4HPA3H HpaB wt) MKPEDFRASTQRPFTGEEYLKSLQDGREIYIYGERVKDVTTHPAFRNAAASVAQLYDALHKPEMQDSLCWNTDTGSGGYTHKFFRVAKSADDLRQQRDAIAEWSRLSYGWMGRTPDYKAAFGCALGANPGFYGQFEQNARNWYTRIQETGLYFNHAIVNPPIDRHLPTDKVKDVYIKLEKETDAGIIVSGAKVVATNSALTHYNMIGFGSAQVMGENPDFALMFVAPMDADGVKLISRASYEMVAGATGSPYDYPLSSRFDENDAILVMDNVLIPWENVLIYRDFDRCRRWTMEGGFARMYPLQACVRLAVKLDFITALLKKSLECTGTLEFRGVQADLGEVVAWRNTFWALSDSMCSEATPWVNGAYLPDHAALQTYRVLAPMAYAKIKNIIERNVTSGLIYLPSSARDLNNPQIDQYLAKYVRGSNGMDHVQRIKILKLMWDAIGSEFGGRHELYEINYSGSQDEIRLQCLRQAQNSGNMDKMMAMVDRCLSEYDQDGWTVPHLHNNDDINMLDKLLK | – | – | specific activity towards p-coumaric acid (1) [5]: 6.2 ± 0.5 nmol/min/mg |
| 4HPA3H-Y301F/S462A: 4HPA3H double variant, SEQ ID NO:175 (protein, listed as Escherichia coli, 4HPA3H HpaB Y301F/S462A) MKPEDFRASTQRPFTGEEYLKSLQDGREIYIYGERVKDVTTHPAFRNAAASVAQLYDALHKPEMQDSLCWNTDTGSGGYTHKFFRVAKSADDLRQQRDAIAEWSRLSYGWMGRTPDYKAAFGCALGANPGFYGQFEQNARNWYTRIQETGLYFNHAIVNPPIDRHLPTDKVKDVYIKLEKETDAGIIVSGAKVVATNSALTHYNMIGFGSAQVMGENPDFALMFVAPMDADGVKLISRASYEMVAGATGSPYDYPLSSRFDENDAILVMDNVLIPWENVLIYRDFDRCRRWTMEGGFARMFPLQACVRLAVKLDFITALLKKSLECTGTLEFRGVQADLGEVVAWRNTFWALSDSMCSEATPWVNGAYLPDHAALQTYRVLAPMAYAKIKNIIERNVTSGLIYLPSSARDLNNPQIDQYLAKYVRGSNGMDHVQRIKILKLMWDAIGSEFGGRHELYEINYAGSQDEIRLQCLRQAQNSGNMDKMMAMVDRCLSEYDQDGWTVPHLHNNDDINMLDKLLK | – | – | conversion rate of ferulic acid (3) [6]: 1.06 ± 0.31 nmol/min/mg; specific activity towards p-coumaric acid (1) [5]: 1.6 ± 0.3 nmol/min/mg; transformation of the challenging substrates 3 and 7 [7]: optimal |
